Source: US6737383B1, “Herbicidal oxadiazolidines” (priority 1999, dated 2004)

Legend:
bedstraw = assay: Test B pre/postemergence bedstraw; format: in vivo, Galium aparine
Method in brief: (§1)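 Herbicidal effect was estimated by eye on a ten-point control scale after plants spent twelve to sixteen days in a greenhouse following soil or foliar treatment. Foliar sprays targeted plants at one to four leaves; all doses were formulated in a non-phytotoxic solvent with surfactant.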

blackgrass = assay: Test B pre/postemergence blackgrass; format: in vivo, Alopecurus myosuroides
Method in brief: as §1

surinam grass = assay: Test B pre/postemergence surinam grass; format: in vivo, Brachiaria decumbens
Method in brief: as §1

corn = assay: Test B pre/postemergence corn; format: in vivo, Zea mays
Method in brief: as §1

crabgrass = assay: Test B pre/postemergence crabgrass; format: in vivo, Digitaria sanguinalis
Method in brief: as §1

giant foxtail = assay: Test B pre/postemergence giant foxtail; format: in vivo, Setaria faberii
Method in brief: as §1

rape = assay: Test B pre/postemergence rape; format: in vivo, Brassica napus
Method in brief: as §1

sugar beet = assay: Test B pre/postemergence sugar beet; format: in vivo, Beta vulgaris
Method in brief: as §1

velvetleaf = assay: Test B pre/postemergence velvetleaf; format: in vivo, Abutilon theophrasti
Method in brief: as §1

wheat = assay: Test B pre/postemergence wheat; format: in vivo, Triticum aestivum
Method in brief: as §1

wild oat = assay: Test B pre/postemergence wild oat; format: in vivo, Avena fatua
Method in brief: as §1

purple nutsedge = assay: Test B pre/postemergence purple nutsedge; format: in vivo, Cyperus rotundus
Method in brief: as §1

rice = assay: Test B flood test rice; format: in vivo, Oryza sativa
Method in brief: (§2)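 Flood test on plants grown to the 2-leaf stage; treated plants kept in greenhouse twelve to sixteen days, then visually rated against controls on a 0 (no effect) to 10 (complete control) scale.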

smallflower flatsedge = assay: Test B flood test smallflower flatsedge; format: in vivo, Cyperus difformis
Method in brief: as §2

duck salad = assay: Test B flood test duck salad; format: in vivo, Heteranthera limosa
Method in brief: as §2

bamyardgrass = assay: Test B flood test barnyardgrass; format: in vivo, Echinochloa crus-galli
Method in brief: as §2

[1] = Preemergence, Rate 62 g/ha, scale of 0 to 10 where 0 is no effect and 10 is complete control
[2] = Preemergence, Rate 250 g/ha, scale of 0 to 10 where 0 is no effect and 10 is complete control
[3] = Preemergence, Rate 500 g/ha, scale of 0 to 10 where 0 is no effect and 10 is complete control
[4] = Rate 62 g/ha, Postemergence, scale of 0 to 10 where 0 is no effect and 10 is complete control
[5] = Rate 125 g/ha, Postemergence, scale of 0 to 10 where 0 is no effect and 10 is complete control
[6] = Rate 125 g/ha, Preemergence, scale of 0 to 10 where 0 is no effect and 10 is complete control
[7] = Rate 250 g/ha, Postemergence, scale of 0 to 10 where 0 is no effect and 10 is complete control
[8] = Rate 500 g/ha, Postemergence, scale 0 to 10, 0 no effect, 10 complete control
[9] = Rate 62 g/ha, headed Pre-emergence (flood test species), scale 0 to 10 (0 no effect, 10 complete control)
[10] = Rate 125 g/ha, Pre-emergence, flood test species, scale 0 to 10 where 0 is no effect and 10 is complete control
[11] = Rate 250 g/ha, Pre-emergence, flood-test species, scale 0 to 10, 0 is no effect, 10 is complete control
[12] = Rate 500 g/ha, Pre-emergence, flood test species, scale 0 to 10 (0 no effect, 10 complete control)

For CC(C)N(C(=O)n1oc(=O)n(Cc2ccccn2)c1=O)c1ccc(F)cc1 [Compound 267], the “Bedstraw plant response rating” value (bedstraw; [1]) was 0, the “Bedstraw plant response rating” value (bedstraw; [2]) was 0 and the “Plant response rating, Bedstraw” value (bedstraw; [3]) was 2. The “Bedstraw plant response rating” value (bedstraw; [4]) was 0, the “Bedstraw plant response rating” value (bedstraw; [5]) was 0 and the “Bedstraw plant response rating” value (bedstraw; [6]) was 0. For the same compound, the “Plant response rating, Bedstraw” value (bedstraw; [7]) was 4, the “Bedstraw plant response rating” value (bedstraw; [8]) was 7 and the “Blackgrass plant response rating” value (blackgrass; [1]) was 0. The “Blackgrass plant response rating” value (blackgrass; [2]) was 2, the “Plant response rating, Blackgrass” value (blackgrass; [3]) was 8 and the “Blackgrass plant response rating” value (blackgrass; [4]) was 0. For the same compound, the “Blackgrass plant response rating” value (blackgrass; [5]) was 0, the “Blackgrass plant response rating” value (blackgrass; [6]) was 2 and the “Plant response rating, Blackgrass” value (blackgrass; [7]) was 5. For the same compound, the “Blackgrass plant response rating” value (blackgrass; [8]) was 8, the “B. signalgrass plant response rating” value (surinam grass; [1]) was 0 and the “B. signalgrass plant response rating” value (surinam grass; [2]) was 0. The “Plant response rating, B. signalgrass” value (surinam grass; [3]) was 9, the “B. signalgrass plant response rating” value (surinam grass; [4]) was 0 and the “B. signalgrass plant response rating” value (surinam grass; [5]) was 0. For the same compound, the “B. signalgrass plant response rating” value (surinam grass; [6]) was 0, the “Plant response rating, B. signalgrass” value (surinam grass; [7]) was 0 and the “B. signalgrass plant response rating” value (surinam grass; [8]) was 3. The “Corn plant response rating” value (corn; [1]) was 0, the “Corn plant response rating” value (corn; [2]) was 2 and the “Plant response rating, Corn” value (corn; [3]) was 3. For the same compound, the “Corn plant response rating” value (corn; [4]) was 0, the “Corn plant response rating” value (corn; [5]) was 0 and the “Corn plant response rating” value (corn; [6]) was 0. For the same compound, the “Plant response rating, Corn” value (corn; [7]) was 0, the “Corn plant response rating” value (corn; [8]) was 0 and the “Crabgrass plant response rating” value (crabgrass; [1]) was 2. The “Crabgrass plant response rating” value (crabgrass; [2]) was 1, the “Plant response rating, Crabgrass” value (crabgrass; [3]) was 8 and the “Crabgrass plant response rating” value (crabgrass; [5]) was 0. The “Crabgrass plant response rating” value (crabgrass; [6]) was 0, the “Plant response rating, Crabgrass” value (crabgrass; [7]) was 3 and the “Crabgrass plant response rating” value (crabgrass; [8]) was 7. For the same compound, the “Giant foxtail plant response rating” value (giant foxtail; [1]) was 8, the “Giant foxtail plant response rating” value (giant foxtail; [2]) was 9 and the “Plant response rating, Giant foxtail” value (giant foxtail; [3]) was 9. The “Giant foxtail plant response rating” value (giant foxtail; [5]) was 0, the “Giant foxtail plant response rating” value (giant foxtail; [6]) was 8 and the “Plant response rating, Giant foxtail” value (giant foxtail; [7]) was 2. For the same compound, the “Giant foxtail plant response rating” value (giant foxtail; [8]) was 7, the “Rape plant response rating” value (rape; [1]) was 0 and the “Rape plant response rating” value (rape; [2]) was 0. For the same compound, the “Plant response rating, Rape” value (rape; [3]) was 0, the “Rape plant response rating” value (rape; [5]) was 0 and the “Rape plant response rating” value (rape; [6]) was 0. For the same compound, the “Plant response rating, Rape” value (rape; [7]) was 0, the “Rape plant response rating” value (rape; [8]) was 2 and the “Sugarbeets plant response rating” value (sugar beet; [1]) was 0. The “Sugarbeets plant response rating” value (sugar beet; [2]) was 0, the “Plant response rating, Sugarbeets” value (sugar beet; [3]) was 5 and the “Sugarbeets plant response rating” value (sugar beet; [5]) was 0. For the same compound, the “Sugarbeets plant response rating” value (sugar beet; [6]) was 0, the “Plant response rating, Sugarbeets” value (sugar beet; [7]) was 2 and the “Sugarbeets plant response rating” value (sugar beet; [8]) was 4. The “Velvetleaf plant response rating” value (velvetleaf; [1]) was 0, the “Velvetleaf plant response rating” value (velvetleaf; [2]) was 0 and the “Plant response rating, Velvetleaf” value (velvetleaf; [3]) was 3. For the same compound, the “Velvetleaf plant response rating” value (velvetleaf; [5]) was 0, the “Velvetleaf plant response rating” value (velvetleaf; [6]) was 0 and the “Plant response rating, Velvetleaf” value (velvetleaf; [7]) was 1. For the same compound, the “Velvetleaf plant response rating” value (velvetleaf; [8]) was 3, the “Wheat plant response rating” value (wheat; [1]) was 0 and the “Wheat plant response rating” value (wheat; [2]) was 0. For the same compound, the “Plant response rating, Wheat” value (wheat; [3]) was 0, the “Wheat plant response rating” value (wheat; [5]) was 0 and the “Wheat plant response rating” value (wheat; [6]) was 0. For the same compound, the “Plant response rating, Wheat” value (wheat; [7]) was 3, the “Wheat plant response rating” value (wheat; [8]) was 4 and the “Wild oats plant response rating” value (wild oat; [1]) was 0. The “Wild oats plant response rating” value (wild oat; [2]) was 0, the “Plant response rating, Wild oats” value (wild oat; [3]) was 2 and the “Wild oats plant response rating” value (wild oat; [5]) was 0. For the same compound, the “Wild oats plant response rating” value (wild oat; [6]) was 0, the “Plant response rating, Wild oats” value (wild oat; [7]) was 2 and the “Wild oats plant response rating” value (wild oat; [8]) was 4. The “Nutsedge plant response rating” value (purple nutsedge; [1]) was 0, the “Nutsedge plant response rating” value (purple nutsedge; [2]) was 0 and the “Plant response rating, Nutsedge” value (purple nutsedge; [3]) was 0. The “Nutsedge plant response rating” value (purple nutsedge; [5]) was 0, the “Nutsedge plant response rating” value (purple nutsedge; [6]) was 0 and the “Plant response rating, Nutsedge” value (purple nutsedge; [7]) was 0. The “Nutsedge plant response rating” value (purple nutsedge; [8]) was 4, the “Rice plant response rating” value (rice; [9]) was 0 and the “Rice plant response rating” value (rice; [10]) was 0. The “Rice plant response rating” value (rice; [11]) was 0, the “Rice plant response rating” value (rice; [12]) was 0 and the “S. Flatsedge plant response rating” value (smallflower flatsedge; [9]) was 0. For the same compound, the “S. Flatsedge plant response rating” value (smallflower flatsedge; [10]) was 0, the “S. Flatsedge plant response rating” value (smallflower flatsedge; [11]) was 0 and the “S. Flatsedge plant response rating” value (smallflower flatsedge; [12]) was 0. The “Ducksalad plant response rating” value (duck salad; [9]) was 0, the “Ducksalad plant response rating” value (duck salad; [10]) was 0 and the “Ducksalad plant response rating” value (duck salad; [11]) was 0. The “Ducksalad plant response rating” value (duck salad; [12]) was 0, the “Barnyardgrass plant response rating” value (bamyardgrass; [9]) was 0 and the “Barnyardgrass plant response rating” value (bamyardgrass; [10]) was 0. The “Barnyardgrass plant response rating” value (bamyardgrass; [11]) was 0 and the “Barnyardgrass plant response rating” value (bamyardgrass; [12]) was 0.
